Test results from US20220386606A1, “SPECIFICALLY SUBSTITUTED 3-PHENYL-5-SPIROCYCLOPENTYL-3-PYRROLIN-2-ONES AND THEIR USE AS HERBICIDES” (Bayer Aktiengesellschaft, priority 2019, published 2022).

Tests used:
[1] = system: DIGSA; assay: Post-emergence herbicidal action against DIGSA; format: in vivo, Digitaria sanguinalis; conditions: 80 g/ha, visual assessment about 3 weeks after treatment vs untreated controls
Procedure, shortened: (§1)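 Greenhouse post-emergence test; one-leaf stage (2–3 wk post-sowing), sandy loam. Spray: WP/EC in water, 600–800 l/ha, 0.2% wetting agent, onto green parts. Visual rating ~3 wk later, % vs untreated (100% = dead, 0% = like control).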

[2] = system: ECHCG; assay: Post-emergence herbicidal action against ECHCG; format: in vivo, Echinochloa crus-galli; conditions: 80 g/ha, visual assessment about 3 weeks after treatment vs untreated controls
Procedure, shortened: as §1

[3] = system: SETVI; assay: Post-emergence herbicidal action against SETVI; format: in vivo, Setaria viridis; conditions: 80 g/ha, visual assessment about 3 weeks after treatment vs untreated controls
Procedure, shortened: as §1

[4] = system: HORMU; assay: Post-emergence herbicidal action against HORMU; format: in vivo, Hordeum murinum; conditions: 80 g/ha, visual assessment about 3 weeks after treatment vs untreated controls
Procedure: Seeds of monocotyledonous and dicotyledonous weed and crop plants are laid out in sandy loam soil in wood-fiber pots, covered with soil and cultivated in a greenhouse under good growth conditions. 2 to 3 weeks after sowing, the test plants are treated at the one-leaf stage. The compounds of the invention, formulated in the form of wettable powders (WP) or as emulsion concentrates (EC), are then sprayed onto the green parts of the plants as aqueous suspension or emulsion at a water application rate equating to 600 to 800 l/ha with addition of 0.2% wetting agent. After the test plants have been left to stand in the greenhouse under optimal growth conditions for about 3 weeks, the action of the preparations is assessed visually in comparison to untreated controls (herbicidal action in percent (%): 100% activity=the plants have died, 0% activity=like control plants).

[5] = system: ABUTH; assay: Post-emergence herbicidal action against ABUTH; format: in vivo, Abutylon threophrasti; conditions: 80 g/ha, visual assessment about 3 weeks after treatment vs untreated controls
Procedure, shortened: as §1

[6] = system: LOLRI; assay: Post-emergence herbicidal action against LOLRI; format: in vivo, Lolium rigidum; conditions: 80 g/ha, visual assessment about 3 weeks after treatment vs untreated controls
Procedure, shortened: as §1

[7] = system: AVEFA; assay: Post-emergence herbicidal action against AVEFA; format: in vivo, Avena fatua; conditions: 80 g/ha, visual assessment after about 3 weeks
Procedure, shortened: as §1

[8] = system: ALOMY; assay: Post-emergence herbicidal action against ALOMY; format: in vivo, Alopecurus myosuroides; conditions: 80 g/ha, visual assessment after about 3 weeks
Procedure, shortened: as §1

[9] = system: DIGSA; assay: Pre-emergence herbicidal action against DIGSA; format: in vivo, Digitaria sanguinalis; conditions: 320 g/ha, scored visually after 3 weeks vs untreated controls
Procedure, shortened: (§2)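 Visual percent damage, rated 3 weeks after treatment against untreated plants (0% like control, 100% plants dead). Compounds, as wettable powders or emulsion concentrates, were sprayed pre-emergence onto soil covering seeds sown in sandy loam, at 600 to 800 L/ha water with 0.2% wetting agent; pots kept in greenhouse.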

[10] = system: ABUTH; assay: Pre-emergence herbicidal action against ABUTH; format: in vivo, Abutylon threophrasti; conditions: 320 g/ha
Source text: Seeds of monocotyledonous and dicotyledonous weed plants and crop plants are laid out in sandy loam soil in wood-fiber pots and covered with soil. The compounds of the invention, formulated in the form of wettable powders (WP) or as emulsion concentrates (EC), are then applied to the surface of the covering soil as aqueous suspension or emulsion at a water application rate equating to 600 to 800 L/ha with addition of 0.2% wetting agent.
After the treatment, the pots are placed in a greenhouse and kept under good growth conditions for the trial plants. The damage to the test plants is scored visually after a test period of 3 weeks by comparison with untreated controls (herbicidal activity in percent (%): 100% activity=the plants have died, 0% activity=like control plants).

[11] = system: VERPE; assay: Pre-emergence herbicidal action against VERPE; format: in vivo, Veronica persica; conditions: 320 g/ha
Procedure, shortened: as §2

[12] = system: SETVI; assay: Pre-emergence herbicidal action against SETVI; format: in vivo, Setaria viridis; conditions: 320 g/ha, scored visually after 3 weeks vs untreated controls
Procedure, shortened: as §2

[13] = system: ALOMY; assay: Pre-emergence herbicidal action against ALOMY; format: in vivo, Alopecurus myosuroides; conditions: 320 g/ha, scored visually after 3 weeks vs untreated controls
Procedure, shortened: as §2

[14] = system: ECHCG; assay: Pre-emergence herbicidal action against ECHCG; format: in vivo, Echinochloa crus-galli; conditions: 320 g/ha, scored visually after 3 weeks vs untreated controls
Procedure, shortened: as §2

[15] = system: AVEFA; assay: Pre-emergence herbicidal action against AVEFA; format: in vivo, Avena fatua; conditions: 320 g/ha, scored visually after 3 weeks vs untreated controls
Procedure, shortened: as §2

[16] = system: LOLRI; assay: Pre-emergence herbicidal action against LOLRI (Table 8, titled post-emergence at 320 g/ha); format: in vivo, Lolium rigidum; conditions: table stands in the pre-emergence section
Procedure, shortened: as §2

[17] = system: VIOTR; assay: Pre-emergence herbicidal action against VIOTR; format: in vivo, Viola tricolor; conditions: 320 g/ha
Procedure, shortened: as §2

[18] = system: MATIN; assay: Pre-emergence herbicidal action against MATIN; format: in vivo; conditions: 320 g/ha
Procedure, shortened: as §2

[19] = system: AMARE; assay: Pre-emergence herbicidal action against AMARE; format: in vivo, Amaranthus retroflexus; conditions: 320 g/ha
Procedure, shortened: as §2

Row | Compound | Post-emergence action against DIGSA in % [1] [%] | Post-emergence action against ECHCG in % [2] [%] | Post-emergence action against SETVI in % [3] [%] | Post-emergence action against HORMU in % [4] [%] | Post-emergence action against ABUTH in % [5] [%] | Post-emergence action against LOLRI in % [6] [%] | Post-emergence action against AVEFA in % [7] [%] | Post-emergence action against ALOMY in % [8] [%] | Pre-emergence action against DIGSA in % [9] [%] | Pre-emergence action against ABUTH in % [10] [%] | Pre-emergence action against VERPE in % [11] [%] | Pre-emergence action against SETVI in % [12] [%] | Pre-emergence action against ALOMY in % [13] [%] | Pre-emergence action against ECHCG in % [14] [%] | Pre-emergence action against AVEFA in % [15] [%] | Pre-emergence herbicidal action against LOLRI in % [16] [%] | Pre-emergence action against VIOTR in % [17] [%] | Pre-emergence action against MATIN in % [18] [%] | Pre-emergence action against AMARE in % [19] [%]
1 | CC#Cc1cc(C)c(C2=C(O)C3(CCC(COC)C3)NC2=O)c(Cl)c1 (stereo not drawn) [Example I-06] | 100 | 100 | 100 | 100 | 80 | 100 | 100 | 100 |  |  |  |  |  |  |  |  |  |  | 
2 | CC#Cc1cc(C)c(C2=C(O)C3(CCC(COC)C3)NC2=O)c(Cl)c1 (stereo not drawn) [Example I-12] | 100 | 100 | 100 | 100 | 90 | 100 | 100 | 100 |  |  |  |  |  |  |  |  |  |  | 
3 | CC#Cc1cc(C)c(C2=C(O)C3(CCC(COCC)C3)NC2=O)c(Cl)c1 (stereo not drawn) [Example I-17] | 100 | 100 | 100 |  |  | 100 | 90 | 100 | 100 | 90 | 90 | 100 | 100 | 100 | 100 | 100 | 100 | 90 | 100
4 | CC#Cc1cc(Cl)c(C2=C(O)C3(CCC(COC)C3)NC2=O)c(OC)c1 (stereo not drawn) [Example I-72] | 100 | 100 | 100 |  |  | 100 | 100 | 90 | 100 | 100 |  | 100 | 100 | 100 | 100 | 100 | 100 | 100 | 
5 | CC#Cc1cc(Cl)c(C2=C(O)C3(CCC(COC)C3)NC2=O)c(OC)c1 (stereo not drawn) [Example I-73] | 100 | 100 | 100 |  |  | 100 | 100 | 100 | 100 | 100 | 90 | 100 | 100 | 100 | 100 | 100 | 100 | 90 | 100
6 | CC#Cc1cc(C)c(C2=C(OC(=O)C(C)C)C3(CCC(COCC)C3)NC2=O)c(Cl)c1 (stereo not drawn) [Example P-03] | 100 | 100 | 100 | 100 | 80 | 100 | 100 | 100 |  |  |  |  |  |  |  |  |  |  | 
7 | CC#Cc1cc(Cl)c(C2=C(OC(=O)C(C)C)C3(CCC(COC)C3)NC2=O)c(CC)c1 (stereo not drawn) [Example P-14] | 100 | 100 | 100 | 100 | 90 | 100 | 100 | 100 |  |  |  |  |  |  |  |  |  |  | 
8 | CC#Cc1cc(Cl)c(C2=C(OC(=O)OCC)C3(CCC(COCC)C3)NC2=O)c(CC)c1 (stereo not drawn) [Example P-20] | 100 | 100 | 100 | 100 |  | 100 | 100 | 100 |  |  |  |  |  |  |  |  |  |  | 
9 | CC#Cc1cc(Cl)c(C2=C(OC(=O)C(C)C)C3(CCC(COC)C3)NC2=O)c(CC)c1 (stereo not drawn) [Example P-22] | 100 | 100 | 100 | 100 |  | 100 | 100 | 100 |  |  |  |  |  |  |  |  |  |  | 
10 | CC#Cc1cc(C)c(C2=C(OC(=O)OCC)C3(CCC(COC)C3)NC2=O)c(Cl)c1 (stereo not drawn) [Example P-24] | 100 | 100 | 100 | 100 |  | 100 | 100 | 100 |  |  |  |  |  |  |  |  |  |  | 
11 | CC#Cc1cc(Cl)c(C2=C(OC(=O)C(C)C)C3(CCC(COCC)C3)NC2=O)c(OC)c1 (stereo not drawn) [Example P-25] | 100 | 100 | 100 | 100 | 90 | 100 | 100 | 100 |  |  |  |  |  |  |  |  |  |  | 
12 | CC#Cc1cc(Cl)c(C2=C(OC(=O)OCC)C3(CCC(COCC)C3)NC2=O)c(OC)c1 (stereo not drawn) [Example P-26] | 100 | 100 | 100 | 100 | 80 | 100 | 100 | 100 |  |  |  |  |  |  |  |  |  |  | 
13 | CC#Cc1cc(Cl)c(C2=C(OC(=O)OCC)C3(CCC(COC)C3)NC2=O)c(OC)c1 (stereo not drawn) [Example P-97] | 100 | 100 | 100 |  |  | 100 | 100 | 100 | 100 | 100 | 100 | 100 | 100 | 100 | 100 | 100 | 90 | 100 | 100
